Entries after “also recorded” stand apart in the source; their conditions may differ.
What was measured:
[1] = test system: H3K4 trimethylation activity in MEFs; test: H3K4me3 indicator in murine embryonic fibroblasts from Kmt2d+/βGeo and Kmt2d+/+ mice; type: cell-based, mouse
Source text: An H3K4 trimethylation reporter was also created (FIG. 5B). This reporter is based on the H3 tail on one end and the TBP associated factor III (TAFIII) […] on the other end; the TAFIII […] only identifies and binds to trimethylated K4 on H3. When the H3K4 site gets trimethylated, the TAFIII […] can bind to the modified H3 tail and bring the two parts of the separated GFP in close proximity. The activity of the epigenetic modification system can be quantified through fluorescence.
Epigenetic reporter alleles were synthesized (OriGene, Rockville, Md.) using published sequences for component elements (Baird et al. (1999) Proc. Natl. Acad. Sci. 96:11241-6; Souslova et al. (2007) BMC Biotechnol. 7:37). Single nucleotide mutations were created using the QuickChange Lightening kit (Agilent Technologies Inc, Santa Clara, Calif.). For H4ac indicator, K5R, K8R, K12R, K16R and K20R (MUT indicator) were introduced. For H3K4me3 indicator, K4Q and D890A/W891A and M882A (three separate constructs) were introduced. For transient transfections, mouse embryonic fibroblasts (see below) were transfected with Fugene HD (Promega, Madison, Wis.), 48 hours prior to FACS. […] For drug stimulation, drug was added to the media 24 hours prior to FACS. For stable transfections in T293 (American Type Culture Collection) cells, 10 μg/ml of Blastocidin (Life Technologies, Carlsbad, Calif.) was added to the media for several weeks. For stable transfection in MEFs, the reporter was transferred to a ViraPower Lentiviral Expression System (Life Technologies, Carlsbad, Calif.). After selection with Blastocidin, the drug of interest was added 24 hours prior to FACS. SAHA, AR-42 and MS275 were purchased from Selleck (Selleck Chemicals, Houston, Tex.). […] FACS data were analyzed using FlowJo (Tree Star Inc, Ashland, Oreg.). A plasmid expressing HDAC3 was acquired from Addgene (Cambridge, Mass., plasmid 13819) and transfected into a stable cell line carrying the H4 acetyl reporter allele.

[2] = test system: genome-wide H3K4me3; test: ChIP-seq of H3K4me3 in spleen cells of treated mice; type: in vivo, mouse; details: 10 mg/kg/day, spleen cells of Kmt2d+/βGeo mice
Protocol: Spleens were dissected from eight mice, four from each kmt2d genotype (+/βGeo or +/+) where half of each genotype was treated with AR-42 and half with vehicle only. Spleens were minced and passed through a 40 μm cell strainer to obtain single cell suspensions. 10 million cells were used for each ChIP-seq experiment following the native chromatin immunoprecipitation protocol, as previously described (Gilfillan et al. (2012) BMC Genomics 13:645), using a ChIP-grade antibody against H3K4me3 (9727, Cell Signaling Technology, Beverly, Mass.).
Sequencing was performed using a MiSeq system (Illumina, San Diego, Calif.). 4.8-9.6 million paired-end 26 bp reads were obtained per sample (Table 1; nReads=number of reads, alignRate=fraction aligned to genome; FRIP=fraction of reads in peaks). Reads were aligned to the m. musculus genome, version mm10, using Bowtie 2 (Langmead and Salzberg (2012) Nat. Methods. 9: 357-9). Each sample was examined with regard to alignment rate as well as FRIP (fraction of reads in peaks), a measure of the ChIP efficiency (Table 1). […] For analysis, reads were merged into one meta-sample and peak calling was performed using MACS version 1.4.2 (Zhang et al. (2008) Genome Biol. 9: R137). […] This created a peak by sample matrix of read counts. […] Fold change and overall abundance was calculated as per edgeR. […]

CC(C)[C@H](C(=O)Nc1ccc(C(=O)NO)cc1)c1ccccc1 [AR-42]
dose at which Kmt2d+/βGeo MEFs achieve untreated wild-type levels of activity ([1]; Kmt2d+/βGeo MEFs): 5 µM
H3K4 trimethylation activity ([1]; Kmt2d+/βGeo cells (MEFs)): enhanced
H3K4me3 indicator activity in MEFs ([1]; both genotypes (Kmt2d+/+ and Kmt2d+/βGeo)): dose-dependent response
genome-wide deficiency of H3K4me3 (ChIP-seq) [2]: genome-wide increase in H3K4me3; also recorded: overcorrection; also recorded: improved; also recorded: recovered; also recorded: normalized (but somewhat over corrected)
